Consider 39 compounds from patent US8835440B2, “Cyclic pyrimidin-4-carboxamides as CCR2 receptor antagonists for treatment of inflammation, asthma and COPD” (Boehringer Ingelheim International GmbH, priority 2008, dated 2014).

For the assay, the target named is T1, CCR2 (Homo sapiens, UniProt P41597).
T1 construct: Membranes were prepared from THP-1 cells; endogenous in cells; host or cells: THP-1 cells (membrane preparation)
T1 sequence (P41597 1-360 isoform P41597-2): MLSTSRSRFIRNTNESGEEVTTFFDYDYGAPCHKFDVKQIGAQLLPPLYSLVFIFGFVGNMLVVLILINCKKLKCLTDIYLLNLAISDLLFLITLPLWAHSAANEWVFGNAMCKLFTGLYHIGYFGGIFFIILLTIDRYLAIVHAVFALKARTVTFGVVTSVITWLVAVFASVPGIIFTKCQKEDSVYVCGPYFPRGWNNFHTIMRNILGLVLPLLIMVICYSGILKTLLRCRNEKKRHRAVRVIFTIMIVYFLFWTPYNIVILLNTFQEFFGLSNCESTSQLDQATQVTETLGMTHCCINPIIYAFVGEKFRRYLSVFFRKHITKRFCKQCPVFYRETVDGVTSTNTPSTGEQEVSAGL
Nature of the assay: CCR2 receptor membrane binding assay ([125I]MCP-1, THP-1 cell membranes, SPA beads). The settings on record: for remaining activity at 10 µM: read-out: CCR2 % ctrl @ 10 μM; for Ki: dissociation constant hKi, [125I]MCP-1 binding to THP-1 membranes. How it is done:
The above exemplary substances have been tested for binding to CCR2 using a binding assay as outlined herein below:
THP-1 cells (human acute monocytic leukaemia cells) were cultured under standardized conditions at 37° C. and 5% CO2 in a humidified incubator. THP-1 cells were cultivated in RPMI 1640 medium (Gibco 21875) containing 1% MEM-NEAA (Gibso 11140) 2 mM L-glutamine, 1.5 g/L sodium bicarbonate, 4.5 g/L glucose, 10 mM HEPES and 1.0 mM sodium pyruvate, 90%; 10% fetal calf serum (FCS Gibco 10500-064).
Membranes were prepared from THP-1 cells. THP-1 cells were centrifuged at 300×g at 4° C. for 10 min. The cell pellet was resuspendet in Phosphate Buffer Saline (PBS, including 10 μM Pefabloc and a protease inhibitor mix ‘complete’, Boehringer Mannheim (1 tablet/50 ml)), to a concentration of […]. The membrane preparation was performed by disrupting the cells by nitrogen […] (at 50 bar, for 1 h) in a “Nitrogen Bombe” (Parr Instrument). Cell debris was removed by centrifugation (800×g at 4° C., 1 min). The supernatant was centrifuged at 80000×g, 4° C. for 30 min to sediment the cell membranes. Usually 50 mg of protein (Bradford assay) were yielded from 1×10E9 cells. The membranes were resuspendet in 25 mM HEPES, 25 mM MgCl2, 1 mM CaCl2, 10% Glycerine for storage in aliquots at −80° C. in 25 mM HEPES, 25 mM MgCl2, 1 mM CaCl2, 10% Glycerine and stored at −80° C.
Receptor Membrane Binding Assay:
Perkin Elmer NEX 332 Jod 125 MCP-1, Stock: 2200 Ci/mmol solved in 2000 μl assay buffer, stored at −20° C. THP-1 membrane were adjusted with 25 mM HEPES, pH 7.2; 5 mM MgCl2; 0.5 mM CaCl2; 0.2% BSA assay buffer to a concentration of […]. Amersham Biosciences PVT-WGA Beads (RPNQ0001) were adjusted with assay buffer to a concentration of 0.24 mg/30 μl. For preparation of the membrane-bead-suspension membranes and beads were incubated for 30 min at RT under rotation (60 rpm) with a ratio of 1:2. Test compounds dissolved in 100% DMSO to a concentration of 10 mM and are further diluted with 100% DMSO to 1 mM. All additional compound dilutions were obtained with assay buffer, final 1% DMSO. Compounds, membrane-bead-suspension and [125I]MCP-1 (ca. 25000 cpm/10 μl) were incubated. Bound radioactivity was determined by scintillation counter after 8 h. Determination of affinity of test compounds (dissociation constant hKi) is calculated by iterative fitting of experimental data using the “easy sys” program, which is based on law of mass action (Schittkowski K. (1994), Numerische Mathematik, Vol. 68, 129-142).

The mark [1] stands for this setting: @ 10 μM test compound, THP-1 membranes.

Compound `Cc1c(NC[C@@H]2CCC[C@@H](c3ccccc3)C2)ncnc1C(=O)N1CCC(N2CCC(O)CC2)CC1` [Example 144] returned a Ki of 91 nM. The remaining activity at 10 µM under setting [1] was determined as 7%. `COc1ccc(C2CCCC(CNc3ncnc(C(=O)N4CCC(N5CCC(N(C)S(C)(=O)=O)CC5)CC4)c3C)C2)cc1` (stereo not drawn) [Example 159xa] came in with a Ki of 21 nM. With `CO[C@@H]1COCC[C@@H]1NC1CCN(C(=O)c2ncnc(NC[C@H]3CCC[C@@H](c4ccccc4)C3)c2C)CC1` [Example 275di], the Ki was 1 nM. Regarding `Cc1nc(NCC2CCCN(c3ccccc3)C2)c(C)c(C(=O)N2CCC(N3CCC(N(C)S(C)(=O)=O)CC3)CC2)n1` (stereo not drawn) [Example 87], affinity was put at a Ki of 78 nM. Moreover, the remaining activity at 10 µM under setting [1] was found to be 9%. Take `Cc1c(NCc2ccc(Cl)c(Cl)c2)ncnc1C(=O)N1CCC(N(C)CC2(C)COC2)CC1` [Example 180]: the Ki came to 4810 nM. The remaining activity at 10 µM under setting [1] amounted to 60%. Taken in the same sequence, the figures for `Cc1c(NC[C@H]2CCN(c3ccccc3)C2)ncnc1C(=O)N1CCC(N2CCC(N(C)S(C)(=O)=O)CC2)CC1` [Example 156] were 18 nM and 8%. For `Cc1c(NCCc2ccc(Cl)c(Cl)c2)ncnc1C(=O)N1CCC(N2CCCCC2)CC1` [Example 2] the same measures were 222 nM and 13%.

Compound `CNS(=O)(=O)C1CCN(C2CCN(C(=O)c3nc(C)nc(NCc4ccc(C(C)(C)C)cc4)c3C)CC2)CC1` [Example 262] registered a Ki of 224 nM. In addition, the remaining activity at 10 µM under setting [1] stood at 13%. Taken in the same sequence, the figures for `Cc1ccc(CNc2ncnc(C(=O)N3CCC(N4CCC(N(C)S(C)(=O)=O)CC4)CC3)c2C)cc1F` [Example 65] were 176 nM and 8%. Consider `Cc1c(NCc2ccc(C(C)(C)C)cc2)ncnc1C(=O)N1CCC(N2CCC(c3ccc(C#N)cc3)CC2)CC1` [Example 228gk], for which affinity was put at a Ki of 44 nM. Take `Cc1c(NCCc2ccc(Cl)c(Cl)c2)ncnc1C(=O)N1CCC(N2CCC(N(C)S(C)(=O)=O)CC2)CC1` [Example 53]: the inhibition constant Ki stood at 18 nM. In addition, the remaining activity at 10 µM under setting [1] worked out at 4%.

Take `Cc1c(NCc2cccc(-c3ccccc3)c2)ncnc1C(=O)N1CCC(N2CCOC(C)C2)CC1` (stereo not drawn) [Example 234]: the Ki was found to be 401 nM. Further, the remaining activity at 10 µM under setting [1] was determined as 19%.

For the compound `Cc1c(NCc2ccc(Cl)c(Cl)c2)ncnc1C(=O)N1CCC(N2CCCCCC2)CC1` [Example 235], affinity was put at a Ki of 460 nM. Besides, the remaining activity at 10 µM under setting [1] came out at 26%.

In the case of `COC1COCCC1NC1CCN(C(=O)c2ncnc(NCC3CCC[C@@H](c4ccccc4)C3)c2C)CC1` (stereo partly drawn) [Example 228b], the inhibitory constant (Ki) stood at 2 nM. Moreover, the remaining activity at 10 µM under setting [1] turned out to be 4%. Consider `Cc1c(NCc2ccc(C(F)(F)F)c(Cl)c2)ncnc1C(=O)N1CCC(N2CCC(O)CC2)CC1` [Example 116], for which the Ki was 198 nM. In addition, the remaining activity at 10 µM under setting [1] was found to be 16%.

The compound `Cc1c(NCc2cccc(Cl)c2)ncnc1C(=O)N1CCC(N2CCC(N(C)S(C)(=O)=O)CC2)CC1` [Example 66] returned a Ki of 138 nM. Further, under setting [1], the remaining activity at 10 µM was 8%. With `Cc1c(NCc2ccc(C(C)(C)C)cc2)ncnc1C(=O)N1CCC(N2CCC(c3ccncc3)CC2)CC1` [Example 201], the affinity, expressed as Ki, was 101 nM. The remaining activity at 10 µM under setting [1] was 6%. For `Cc1c(NCC2COc3ccccc3C2)ncnc1C(=O)N1CCC(N2CCOCC2)CC1` (stereo not drawn) [Example 50] the same measures were 928 nM and 22%. Turning to `Cc1c(Oc2ccc(Cl)cc2)ncnc1C(=O)N1CCC(N2CCC(N(C)S(C)(=O)=O)CC2)CC1` [Example 290], the inhibition constant Ki was 1600 nM. Besides, under setting [1], the remaining activity at 10 µM amounted to 28%. Compound `Cc1c(NCc2ccc(Cl)c(Cl)c2)ncnc1C(=O)N1CCC(N2CCOCC2)CC1` [Example 107] gave an inhibition constant Ki of 232 nM. In addition, under setting [1], the remaining activity at 10 µM was 12%.

Compound `Cc1c(NCCc2ccc(Cl)c(Cl)c2)ncnc1C(=O)N1CCC(N2CCC[C@H](O)C2)CC1` [Example 229] had a Ki of 1130 nM. Further, under setting [1], the remaining activity at 10 µM was 39%. For `Cc1c(NCc2ccc(Cl)c(F)c2)ncnc1C(=O)N1CCC(N2CCOCC2)CC1` [Example 45] the same measures were 501 nM and 17%. For `CCN(C1CCN(C2CCN(C(=O)c3ncnc(NCc4ccc(Cl)c(Cl)c4)c3C)CC2)CC1)S(C)(=O)=O` [Example 160] the same measures were 43 nM and 3%. As for `Cc1c(NCc2ccc(Cl)c(Cl)c2)ncnc1C(=O)N1CCC(N2CCC(O)CC2)CC1` [Example 109], the Ki was 213 nM. Under setting [1], the remaining activity at 10 µM was 11%.

With `CO[C@@H]1COCC[C@@H]1NC1CCN(C(=O)c2ncnc(NC[C@@H]3CCC[C@H](c4ccc(C)o4)C3)c2C)CC1` [Example 275db], the inhibitory constant (Ki) came to 33 nM.

On to `Cc1c(NCC2CCC(c3ccccc3)C2)ncnc1C(=O)N1CCC(N2CCC(N(C)S(C)(=O)=O)CC2)CC1` (stereo not drawn) [Example 159d], for which the inhibitory constant (Ki) came to 15 nM. On to `Cc1ccc(CNc2ncnc(C(=O)N3CCC(N4CCCCC4)CC3)c2C)cc1F` [Example 104], for which the Ki came to 617 nM. Besides, the “CCR2 % ctrl @ 10 μM” value (@ 10 μM test compound, THP-1 membranes, 10 µM) was found to be 31 % ctrl. `Cc1c(NCc2ccc(C(F)(F)F)cc2)ncnc1C(=O)N1CCC(N2CCC(O)CC2)CC1` [Example 9] had a Ki of 974 nM. Moreover, the remaining activity at 10 µM under setting [1] is 32%. Regarding `COC1CCN(C2CCN(C(=O)c3ncnc(NCC4CCCC(c5ccc(F)cc5)C4)c3C)CC2)CC1` (stereo not drawn) [Example 159kb], the Ki came out at 24 nM. In turn, `Cc1c(NCCc2ccc(Cl)c(Cl)c2)ncnc1C(=O)N1CCC(N2CCC(NS(C)(=O)=O)CC2)CC1` [Example 168] displayed a Ki of 51 nM. Moreover, the remaining activity at 10 µM under setting [1] is 9%.

`Cc1c(NCCc2ccc(OC(F)(F)F)cc2)ncnc1C(=O)N1CCC(N2CCC(O)CC2)CC1` [Example 14] registered a Ki of 387 nM. Further, the remaining activity at 10 µM under setting [1] was found to be 22%.

`Cc1c(NCc2ccc(Cl)cc2)ncnc1C(=O)N1CCC(N2CCCCC2)CC1` [Example 127] came in with a Ki of 665 nM. The remaining activity at 10 µM under setting [1] was found to be 35%. For `Cc1c(NCc2ccc(C(C)(C)C)cc2)ncnc1C(=O)N1CCCN(C2CCCC2)CC1` [Example 286] the same measures were 965 nM and 19%. For `Cc1c(NCc2cccc(-c3ccccc3)c2)cccc1C(=O)N1CCC(N2CCC(O)CC2)CC1` [Example 283] the same measures were 4420 nM and 48%.

In turn, `Cc1c(C(=O)N2CCC(N3CCC(O)CC3)CC2)ccnc1NCc1ccc(Cl)c(Cl)c1` [Example 275] yielded a Ki of 593 nM. The remaining activity at 10 µM under setting [1] was 19%. `CO[C@@H]1COCC[C@@H]1N(C)C1CCN(C(=O)c2ncnc(NCc3ccc(C(C)(C)C)cc3)c2C)CC1` [Example 228ha] registered a Ki of 32 nM. `Cc1c(NCc2ccc(C(C)(C)C)cc2)ncnc1C(=O)N1CCC(N2CC(C)OC(C)C2)CC1` (stereo not drawn) [Example 218] had a Ki of 281 nM. Moreover, under setting [1], the remaining activity at 10 µM stood at 8%. Regarding `Cc1c(NCC2CCc3ccccc3N2)ncnc1C(=O)N1CCC(N2CCC(N(C)S(C)(=O)=O)CC2)CC1` (stereo not drawn) [Example 159gc], the Ki worked out at 26 nM. Still for that read-out and setting: to `Cc1c(NCC2CCC(C)C2)ncnc1C(=O)N1CCC(N2CCC(N(C)S(C)(=O)=O)CC2)CC1` (stereo not drawn) [Example 159bb] belongs 48 nM.
